We go through ten compounds from PMC11881906, “Development of xanthone derivatives as effective broad-spectrum antimicrobials: Disrupting cell wall and inhibiting DNA synthesis” (Science Advances, 2025).

≈ marks a conversion by molar mass, not a printed value. Like-named read-outs stand apart in the source and are kept apart here. Where only a bound is given, the exact number is not on record here.

In data set [1] the test system is E. coli ATCC 25922. The data set can be described thus: MIC, broth microdilution. In kind it is cell-based, Escherichia coli. The settings on record: Escherichia coli, ATCC25922, 24 h, 24-hour incubation, MHB; read-out: MIC90 E. coli ATCC 25922. Here is the method:
(§1) MIC was determined using the broth microdilution method in accordance with Clinical and Laboratory Standards Institute guidelines. All compounds were dissolved in dimethyl sulfoxide (DMSO; final DMSO concentration of less than 0.5%) and sterile double-distilled water and then diluted with Mueller-Hinton broth (MHB). Each compound’s stock solution was serially twofold diluted, resulting in concentrations ranging from 0.39 to 100 μg/ml, and thereafter added to sterile 96-well plates. All bacterial cell suspensions were adjusted in MHB to attain a starting inoculum of 1 × 10^6 cells/ml. A total of 100 μl volume of the bacterial suspension was then added to each well. Following a 24-hour incubation at 37°C, the optical density at 600 nm (OD600) was confirmed by measuring absorbance at 600 nm with a BioTek microplate reader. […] All measurements were repeated three times with duplicates each time.
A general note: In broth dilution the organism is exposed to a series of concentrations in liquid medium.

In data set [2] the test system is rabbit erythrocytes. The data set can be described thus: Hemolysis assay. In kind it is cell-based. The settings on record: concentration causing 50% hemolysis of red blood cells; 1 hour, 37°C. Here is the method: The hemolytic activity of antimicrobial agents was investigated as previously described ([70]). Briefly, the rabbit erythrocytes were centrifuged at 2500 rpm for 3 min before being washed twice with sterile phosphate-buffered saline (PBS) (pH 7.4). Subsequently, the erythrocytes were diluted with PBS to a final concentration of 8% (v/v). The DMSO-dissolved compounds were twofold serially diluted in PBS to achieve a final concentration with DMSO less than 0.5%. […] Sterile PBS and 0.2% Triton X-100 were used as negative and positive controls, respectively. After 1 hour of incubation at 37°C, the tested samples were centrifuged at 2500 rpm for 5 min, and aliquots of the supernatant were added to 96-well microplates. The hemoglobin release was determined by measuring the absorbance at 576 nm using a BioTek multimode reader. The percentage of hemolytic activity was calculated using the following formula: Hemolysis rate (%) = [OD576 (compound) − OD576 (PBS)]/[OD576 (Triton X-100) − OD576 (PBS)] × 100. All measurements were repeated three times with duplicates each time.

Data set [3] relates to A. baumannii ATCC 17978. Kind of data set: MIC, broth microdilution. The settings on record: Acinetobacter baumannii, ATCC17978; 24-hour incubation, MHB. The class given is cell-based. Here is the method: as §1
Data set [4] has as its system A. baumannii R2889. Kind of data set: MIC, broth microdilution. In kind it is cell-based. The following applies: Acinetobacter baumannii, 24-hour incubation, MHB. How it is done:
as §1

Data set [5] relates to K. pneumonia ATCC 10031. The data set can be described thus: MIC, broth microdilution. The class given is cell-based. The settings on record: Klebsiella pneumoniae, ATCC10031; 24-hour incubation, MHB. How it is done: as §1
The test system of data set [6] is K. pneumonia ATCC 14581. Kind of data set: MIC, broth microdilution. The class given is cell-based. The settings on record: Klebsiella pneumoniae, ATCC14581; 24-hour incubation, MHB. How it is done:
as §1

Data set [7] has as its system MRSA N315. The data set can be described thus: MIC, broth microdilution. In kind it is cell-based. The settings on record: Staphylococcus aureus, 24-hour incubation, MHB, read-out: MIC90 MRSA N315. Here is the method: as §1
Data set [8] deals with MRSA NCTC 10442. Kind of data set: MIC, broth microdilution. The following applies: Staphylococcus aureus; 24-hour incubation, MHB; read-out: MIC90 MRSA NCTC 10442. The class given is cell-based. Here is the method: as §1
The subject of data set [9] is P. aeruginosa ATCC 9027. The data set can be described thus: MIC, broth microdilution. The class given is cell-based. The following applies: Pseudomonas aeruginosa, ATCC9027; 24-hour incubation, MHB. Here is the method: as §1
In data set [10] the test system is S. aureus ATCC 29213. The data set can be described thus: MIC, broth microdilution. The class given is cell-based. The following applies: Staphylococcus aureus, ATCC29213, 24 h, 24-hour incubation, MHB; read-out: MIC90 S. aureus ATCC 29213. How it is done:
as §1

In data set [11] the test system is tested strains (Gram-positive and Gram-negative bacteria). Kind of data set: MIC, summary over the tested strains. The class given is cell-based. The following applies: read-out: MICs against the tested strains. How it is done:
as §1

[12] abbreviates: Gram-positive and Gram-negative strains.

Consider `CC1(C)S[C@@H]2[C@H](NC(=O)[C@H](N)c3ccc(O)cc3)C(=O)N2[C@H]1C(=O)O` [AMO, amoxicillin, reference compound], for which the MIC90 (usually an inhibitory concentration at the 90% level, which refers to growth in some studies and to a panel of isolates in others) in data set [1] was 6.25 µg/mL (≈ 17.1 µM). The concentration for 50% haemolysis (HC50) (in general, the concentration that lyses half of the red blood cells) in [2] was more than 200 µg/mL.

Take `O=c1c2ccc(O)cc2oc2cc(O)cc(O)c12` [XT01]: the MIC90 in [3] is more than 50 µg/mL; in data set [4], more than 50 µg/mL; in data set [5], more than 50 µg/mL; in data set [6], more than 50 µg/mL; in data set [7], 50 µg/mL (≈ 205 µM); in data set [8], 50 µg/mL (≈ 205 µM). Further, the results for the MIC90 in data set [9], in data set [10] and in data set [1] were more than 50 µg/mL, 50 µg/mL (≈ 205 µM) and more than 100 µg/mL, respectively. Moreover, in data set [2], the 50% haemolytic concentration (HC50) is more than 200 µg/mL.

As to `CNCCCOc1ccc2c(=O)c3c(OCC=C(C)C)cc(OCCCNC)cc3oc2c1` [XT08], the MIC90 is 12.5 µg/mL (≈ 27.5 µM) in data set [7], 12.5 µg/mL (≈ 27.5 µM) in data set [8], 12.5 µg/mL (≈ 27.5 µM) in data set [10] and 25 µg/mL (≈ 55 µM) in data set [1]. Also, in data set [2], the HC50 is more than 200 µg/mL. Moreover, the MIC in data set [11] (setting [12]) fell in the range of 6.25 to 50 µg/mL (≈ 13.7 to 110 µM).

For `CCN(CC)CCCOc1ccc2c(=O)c3c(OCC=C(C)C)cc(OCCCN(CC)CC)cc3oc2c1` [XT09], the MIC90 in data set [7] was found to be 12.5 µg/mL (≈ 23.2 µM); in [8] it was 6.25 µg/mL (≈ 11.6 µM); in data set [10] it was 6.25 µg/mL (≈ 11.6 µM); in [1], 50 µg/mL (≈ 92.8 µM). In addition, the 50% haemolytic concentration (HC50) in data set [2] is more than 200 µg/mL. The MIC in data set [11] (setting [12]) was 6.25 to 50 µg/mL (≈ 11.6 to 92.8 µM).

As to `CCCCN(CCCC)CCCOc1ccc2c(=O)c3c(OCC=C(C)C)cc(OCCCN(CCCC)CCCC)cc3oc2c1` [XT10], the MIC90 in data set [7] was 6.25 µg/mL (≈ 9.6 µM); in data set [8] it was 12.5 µg/mL (≈ 19.2 µM); in data set [10] it was 12.5 µg/mL (≈ 19.2 µM); in [1], more than 50 µg/mL. The same compound gave an HC50 in data set [2] of more than 200 µg/mL.

As to `CC(C)=CCOc1cc(OCCCN2CCCC2)cc2oc3cc(OCCCN4CCCC4)ccc3c(=O)c12` [XT12], the MIC90 in [7] was 12.5 µg/mL (≈ 23.4 µM); in data set [8] it was 6.25 µg/mL (≈ 11.7 µM); in data set [10], 6.25 µg/mL (≈ 11.7 µM); in data set [1], 25 µg/mL (≈ 46.8 µM). The compound further showed an HC50 in data set [2] of more than 200 µg/mL. In addition, the MIC in data set [11] (setting [12]) fell in the range of 6.25 to 25 µg/mL (≈ 11.7 to 46.8 µM).

As for `CC(C)=CCOc1cc(OCCCNCCN(CCN)CCN)cc2oc3cc(OCCCNCCN(CCN)CCN)ccc3c(=O)c12` [XT13], the MIC90 in data set [7] was 6.25 µg/mL (≈ 9.13 µM); in [8], 6.25 µg/mL (≈ 9.13 µM); in data set [10], 6.25 µg/mL (≈ 9.13 µM); in data set [1] it was 50 µg/mL (≈ 73 µM). Further, in data set [2], the HC50 was more than 200 µg/mL. The MIC in data set [11] (setting [12]) fell in the range of 6.25 to 50 µg/mL (≈ 9.13 to 73 µM).

For the compound `CNCCCOc1ccc2c(=O)c3c(OCCCC(F)(F)F)cc(OCCCNC)cc3oc2c1` [XT16], the MIC90 is more than 50 µg/mL in data set [7], more than 50 µg/mL in data set [8], 50 µg/mL (≈ 101 µM) in data set [10] and more than 100 µg/mL in [1]. This compound registered a concentration for 50% haemolysis (HC50) in data set [2] of more than 200 µg/mL. In addition, the MIC in [11] (24 h) lay in the range of 50 to 100 µg/mL (≈ 101 to 201 µM).

`CNCCCCOc1ccc2c(=O)c3c(OCC=C(C)C)cc(OCCCCNC)cc3oc2c1` [XT31]: the MIC90 was 6.25 µg/mL (≈ 13 µM) in [7], 6.25 µg/mL (≈ 13 µM) in [8], 6.25 µg/mL (≈ 13 µM) in [10] and 12.5 µg/mL (≈ 25.9 µM) in [1]. This compound came in with a 50% haemolytic concentration (HC50) in [2] of more than 200 µg/mL.

As to `CCN(CC)CCCCOc1ccc2c(=O)c3c(OCC=C(C)C)cc(OCCCCN(CC)CC)cc3oc2c1` [XT32], the MIC90 in data set [7] worked out at 6.25 µg/mL (≈ 11 µM); in [8], 3.12 µg/mL (≈ 5.51 µM); in [10], 3.12 µg/mL (≈ 5.51 µM); in data set [1], 100 µg/mL (≈ 176 µM). In data set [2], this compound had a 50% haemolytic concentration (HC50) of more than 200 µg/mL.
